System: Rhopalosiphum padi
Assay: Antifeedant activity against third-instar larvae of Rhopalosiphum padi assessed as repellency index after 24 hr by feeding choice assay
Format: functional
Set-up: concentration or dose not given beside the values

SMILES	Activity [%]
COc1ccc2c(c1)OCC(=O)N2	18
COc1ccc2c(c1)OCC(=O)N2O	52
COc1ccc2c(c1)OC(O)C(=O)N2O (configuration not stated)	74
O=C1COc2ccccc2N1O	26
O=C1COc2ccccc2N1	17
O=C1Nc2ccccc2OC1O (configuration not stated)	38
COc1ccc2c(c1)OC(O)C(=O)N2 (configuration not stated)	35
COC1Oc2ccccc2N(O)C1=O (configuration not stated)	0
O=C1C(O)Oc2ccccc2N1O (configuration not stated)	92.3
COC(=O)c1ccc2c(c1)OCC(=O)N2O [7-MeOCO-D-DIBOA]	32
O=C(O)c1ccc2c(c1)OCC(=O)N2O	2.5
COc1ccc2c(c1)OC(OC)C(=O)N2O (configuration not stated)	33.3

From ChEMBL document CHEMBL3044999, “Chemical basis for the antifeedant activity of natural hydroxamic acids and related compounds” (2004)
